Test results as given in patent US8067459B2, “Lapachone compounds and methods of use thereof” (ArQule, Inc., priority 2007, dated 2011).
Like-named read-outs stand apart in the source and are kept apart here.

Tests used:
[1] = test system: DU-145 human prostate carcinoma cells; assay: MTS cell viability assay, DU-145 prostate carcinoma cells; assay type: cell-based; settings: read-out: IC50 Values, Cancerous Cells, Prostate DU-145
Description: (§1) Cell viability was determined by measuring the activity of dehydrogenase enzymes in metabolically active cells using a tetrazolium compound, MTS. The assay was performed as described in Promega Technical Bulletin No. 169 (CellTiter 96 Aqueous Non-Radioactive Cell Proliferation Assay): All cells lines were grown in DMEM media (4.5 g/L glucose) supplemented with 15% heat-inactivated FBS, 10 mM L-glutamine, and 10 mM HEPES. Briefly, cells were seeded in 96-well plates and incubated for 16 to 24 hours; test compounds were serially diluted in DMSO, further diluted in cell culture media, then added to cells (final DMSO concentration of 0.33% v/v); cells were incubated in the presence of compound for 4 hours; MTS was added to the cells and incubated for four hours; SDS was added to a final concentration of 1.4% v/v and absorbance at 490 nm was measured within two hours using a plate reader. The amount of […] absorbance was directly proportional to the number of living cells in the culture.
(§2) The assays of the present invention as shown in Table 1 and methods of measuring induction of E2F1 activity and elevation of E2F1 levels can be carried out following the descriptions found in Li et al., (2003) Proc Natl Acad Sci USA. 100(5): 2674-8 and U.S. Patent Application Publication No. 2002/0169135, both incorporated herein by reference.

[2] = test system: K-562 human leukemia cells; assay: MTS cell viability assay, K-562 leukemia cells; assay type: cell-based; settings: read-out: IC50 Values, Cancerous Cells, Leukemia K-562
Description: as §1, §2

[3] = test system: DLD-1 human colon carcinoma cells; assay: MTS cell viability assay, DLD-1 colon carcinoma cells; assay type: cell-based; settings: read-out: IC50 Values, Cancerous Cells, Colon DLD-1
Description: as §1, §2

[4] = test system: PACA-2 human pancreatic carcinoma cells; assay: MTS cell viability assay, PACA-2 pancreatic carcinoma cells; assay type: cell-based; settings: read-out: IC50 Values, Cancerous Cells, Pancreas PACA-2
Description: as §1, §2

[5] = test system: A549 human lung carcinoma cells; assay: MTS cell viability assay, A549 lung carcinoma cells; assay type: cell-based; settings: read-out: IC50 Values, Cancerous Cells, Lung A549
Description: as §1, §2

[6] = test system: NCM-460 normal colon epithelial cells; assay: MTS cell viability assay, NCM-460 normal colon cells; assay type: cell-based; settings: for IC50: Homo sapiens, read-out: IC50 Values, Normal Cells, Colon NCM-460; for Fold Selectivity (NCM-460/DLD1): ratio of IC50 NCM-460 to IC50 DLD-1
Description: Since β-lapachone induces cell death only in cancer cell lines and not in normal cells (Li et al., (2003) Proc Natl Acad Sci USA. 100(5): 2674-8), the present compounds were also tested in a panel of normal cell lines from a variety of tissues including NCM-460 normal colon epithelial cells.
as §1, §2

[7] = test system: normal fresh or proliferating human PBMC; settings: cited from earlier work
E2F1 checkpoint pathway = settings: earlier studies with β-lapachone; cited from earlier work
human cancer cell lines = settings: single agent; typical range; read-out: antineoplastic activity against human cancer cell lines (IC50); cited from earlier work
[8] = DU-145, 4 hours with compound, MTS
[9] = K562, K-562, 4 hours with compound, MTS
[10] = DLD-1, 4 hours with compound, MTS
[11] = PACA-2, 4 hours with compound, MTS
[12] = A549, 4 hours with compound, MTS
[13] = NCM460, NCM-460, 4 hours with compound, MTS

| SMILES | IC50 [1, 8] | IC50 [2, 9] | IC50 [3, 10] | IC50 [4, 11] | IC50 [5, 12] | IC50 [6, 13] | Fold Selectivity (NCM-460/DLD1) [6] | other results |
| --- | --- | --- | --- | --- | --- | --- | --- | --- |
| COC(=O)C1(C)CSC2=C(O1)c1ccccc1C(=O)C2=O (stereo not shown) |  |  |  |  |  |  |  | melting point: 188 to 189 °C |
| CCOC(=O)N1CCN(CC2CSC3=C(O2)c2ccccc2C(=O)C3=O)CC1 (stereo not shown) [Compound 1, ethyl 4-[(5,6-dioxo-2,3,5,6-tetrahydronaphtho[1,2-b][1,4]oxathiin-2-yl)methyl]piperazine-1-carboxylate] | 4.01 µM | 2.93 µM | 1.84 µM | 1.95 µM | 4.77 µM | 4.78 µM | 2.6 |  |
| O=C1C(=O)c2ccccc2C2=C1SCC(CN1CCC(CO)CC1)O2 (stereo not shown) [Compound 2, 2-{[4-(hydroxymethyl)piperidin-1-yl]methyl}-2,3-dihydronaphtho[1,2-b][1,4]oxathiine-5,6-dione] | 3.88 µM | 2.84 µM | 2.05 µM | 1.64 µM | 11.7 µM | 10.8 µM | 5.3 |  |
| O=C1C(=O)c2ccccc2C2=C1SCC(CN1CCC(O)CC1)O2 (stereo not shown) [Compound 3, 2-[(4-hydroxypiperidin-1-yl)methyl]-2,3-dihydronaphtho[1,2-b][1,4]oxathiine-5,6-dione] |  |  |  |  |  |  |  | melting point: 98 to 100 °C |
| COC(CN(C)CC1CSC2=C(O1)c1ccccc1C(=O)C2=O)OC (stereo not shown) [Compound 4, 2-{[(2,2-dimethoxyethyl)(methyl)amino]methyl}-2,3-dihydronaphtho[1,2-b][1,4]oxathiine-5,6-dione] |  |  |  |  |  |  |  | melting point: 80 to 82 °C |
| O=C1C(=O)c2ccccc2C2=C1SCC(CN1CCN(c3ccc(F)cc3)CC1)O2 (stereo not shown) [Compound 5, -{[4-(4-fluorophenyl)piperazin-1-yl]methyl}-2,3-dihydronaphtho[1,2-b][1,4]oxathiine-5,6-dione] | 1.49 µM | 2.68 µM | 1.57 µM | 1.34 µM | 4.79 µM | 9.83 µM | 6.3 |  |
| CC(C)NC(=O)CN1CCN(CC2CSC3=C(O2)c2ccccc2C(=O)C3=O)CC1 (stereo not shown) [Compound 8, 2-{4-[(5,6-dioxo-2,3,5,6-tetrahydronaphtho[1,2-b][1,4]oxathiin-2-yl)methyl]piperazin-1-yl}-N-isopropylacetamide] |  |  |  |  |  |  |  | melting point: 85 to 87 °C |
| O=C1C(=O)c2ccccc2C2=C1SCC(CN1CCC3(CC1)OCCO3)O2 (stereo not shown) [Compound 9, 2-(1,4-dioxa-8-azaspiro[4.5]dec-8-ylmethyl)-2,3-dihydronaphtho[1,2-b][1,4]oxathiine-5,6-dione] |  |  |  |  |  |  |  | melting point: 202 to 204 °C |
| CCCC1CCOC2=C(S1)C(=O)C(=O)c1ccccc12 (stereo not shown) [Compound 13, 4-propyl-3,4-dihydro-2H-naphtho[1,2-b][1,4]oxathiepine-6,7-dione] |  |  |  |  |  |  | 1.4 | IC50 ([1]; DU-145, 4 h): 13.2 µM; IC50 ([2]; K562, 4 h): 10.9 µM; IC50 ([3]; DLD-1, 4 h): 12.9 µM; IC50 ([4]; PaCa-2, 4 h): 12.1 µM; IC50 ([5]; A549, 4 h): > 100 µM; IC50 ([6]; NCM460, 4 h): 18.6 µM |
| CC1(C)CCC2=C(O1)c1ccccc1C(=O)C2=O [β-lapachone, 3,4-dihydro-2,2-dimethyl-2H-naphtho[1,2-b]pyran-5,6-dione] |  |  |  |  |  |  |  | cytotoxic effects on normal human PBMC [7]: No cytotoxic effects; activation of E2F1 checkpoint pathway in nuclei of cancer cells but not in normal cells (E2F1 checkpoint pathway): induces activation of E2F1 checkpoint pathway; IC50 (human cancer cell lines): 1 to 10 µM |

Second part, led by results:

| IC50 [1, 8] | IC50 [2, 9] | IC50 [3, 10] | IC50 [4, 11] | IC50 [5, 12] | SMILES | IC50 [6, 13] | Fold Selectivity (NCM-460/DLD1) [6] | other results |
| --- | --- | --- | --- | --- | --- | --- | --- | --- |
| 4.67 µM | 5.29 µM | 4.01 µM | 3.78 µM | 12.9 µM | O=C1C(=O)c2ccccc2C2=C1SCC(CNCCc1ccccc1)O2 (stereo not shown) [Compound 6, 2-{[(2-phenylethyl)amino]methyl}-2,3-dihydronaphtho[1,2-b][1,4]oxathiine-5,6-dione] | 17.1 µM | 4.3 |  |
| 4.22 µM | 3.89 µM | 2.95 µM | 2.75 µM | 11.3 µM | O=C1C(=O)c2ccccc2C2=C1SCC(CNCc1ccccc1)O2 (stereo not shown) [Compound 7, 2-[(benzylamino)methyl]-2,3-dihydronaphtho[1,2-b][1,4]oxathiine-5,6-dione] | 11.4 µM | 3.9 |  |
| 4.05 µM | 2.73 µM | 1.36 µM | 2.05 µM | 5.44 µM | O=C(Nc1ccccc1)OCC1CSC2=C(O1)c1ccccc1C(=O)C2=O (stereo not shown) [Compound 11, (5,6-dioxo-2,3,5,6-tetrahydronaphtho[1,2-b][1,4]oxathiin-2-yl)methyl phenylcarbamate] | 7.65 µM | 5.6 |  |
| 3.72 µM | 1.51 µM | 2.17 µM | 1.68 µM | 4.66 µM | CC(C)NC(=O)OCC1CSC2=C(O1)c1ccccc1C(=O)C2=O (stereo not shown) [Compound 12, (5,6-dioxo-2,3,5,6-tetrahydronaphtho[1,2-b][1,4]oxathiin-2-yl)methyl isopropylcarbamate] | 5.92 µM | 2.7 |  |
| 3.79 µM | 4.61 µM | 3.8 µM | 3.39 µM | > 100 µM | CC1CSC2=C(O1)c1cc(-c3ccccc3)ccc1C(=O)C2=O (stereo not shown) [Compound 14, 2-methyl-9-phenyl-2,3-dihydronaphtho[1,2-b][1,4]oxathiine-5,6-dione] | 10.1 µM | 2.7 |  |
| > 100 µM | 58.2 µM | 32.8 µM | 32.4 µM | > 100 µM | CC1CSC2=C(O1)c1cc(N3CCCCC3)ccc1C(=O)C2=O (stereo not shown) [Compound 15, 2-methyl-9-piperidin-1-yl-2,3-dihydronaphtho[1,2-b][1,4]oxathiine-5,6-dione] | 33.6 µM | 1.0 |  |
| 3.82 µM | 2.89 µM | 2.39 µM | 2.04 µM | 5.08 µM | O=C1C(=O)c2ccccc2C2=C1SCC(COc1cccnc1)O2 (stereo not shown) [Compound 17, 2-[(pyridin-3-yloxy)methyl]-2,3-dihydronaphtho[1,2-b][1,4]oxathiine-5,6-dione] | 5.61 µM | 2.3 |  |
